Entries after “also recorded” stand apart in the source; their conditions may differ. Read-outs that look alike come from different tables or passages of the source.
How the values were obtained:
[1] = dogs; ref Parton et al., 2000; cited from earlier work
[2] = various animals; ref Trnavsky and Zachar, 1975; cited from earlier work
[3] = system: recombinant human P450s 2C8, 2C9, 2C19, 2D6, 2E1, and 3A4; conditions: recombinant enzyme
P450 2C19 = conditions: 50 mg/day for 14 days; in vivo mephenytoin oxidation; ref Chen et al., 2003; cited from earlier work
[4] = humans; ref Trnavsky and Zachar, 1975; cited from earlier work
human liver microsomes [5] = type: in vitro ADME
[6] = cats; ref Parton et al., 2000; cited from earlier work
human liver microsomes [7] = type: in vitro ADME; conditions: 100 μM desferrioxamine, Chelex 100-treated buffers, 0.5 nmol microsomal P450, 30 minutes
[8] = humans; ref Hutt et al., 1986; cited from earlier work
[9] = fluorescence detection, aspirin after deacetylation

CC(=O)Oc1ccccc1C(=O)O [Aspirin, acetylsalicylic acid]
half-life [1]: 7.5 h
half-life [2]: 1 to 38 h
concentrations of the products with recombinant P450s [3]: too low to quantitate
effect on P450 2C19 (P450 2C19): increase
half-life [4]: ~ 6 h
product formation (2,3-DHBA or 2,5-DHBA) in the absence of NADPH (human liver microsomes [5]): No product formation
maximum rate of 5-hydroxylation compared with salicylic acid (human liver microsomes [5]; data not shown): approximately five times lower
2,5-DHBA formation with NADPH (human liver microsomes [5]; [9]): detected
half-life [6]: 22 h

CC(=O)N(O)CCCCCNC(=O)CCC(=O)N(O)CCCCCNC(=O)CCC(=O)N(O)CCCCCN [desferrioxamine]
effect on formation of 2,3- and 2,5-DHBA (human liver microsomes [7]): did not inhibit but instead increased; also recorded: no inhibition

O=C(O)c1ccccc1O [salicylic acid]
product formation (2,3-DHBA or 2,5-DHBA) in the absence of NADPH (human liver microsomes [5]): not detected
2,3-DHBA formation with NADPH (human liver microsomes [5]; [9]): detected
2,5-DHBA formation with NADPH (human liver microsomes [5]; [9]): detected
directly excreted [8]: 1–31%

O=C(O)CNC(=O)c1ccccc1O [salicyluric acid]
share of the products of salicylic acid metabolism [8]: 20–65%

Source: publication PMC4414920 (European journal of pharmaceutical sciences : official …, 2015)
